From US20080311657A1, “Killing Human Lymphoma and Leukemia Cancer Cells and Tcr-Activated Normal Human Cells By Dopamine D1r Agonists” (priority 2005, published 2008)
Values joined by “and” are separate entries in the source; they are usually repeats but may differ in a detail not shown here. Identical values can stand only once. “Also recorded” adds a separate entry of the source.

Key:
[1] = system: Human T-cell leukemia (Jurkat) cells; experiment: Number of living cells counted by flow cytometry (FACSort) after D1R agonist; format: cell-based; settings: added four times during 1 hour, counted 3 days later
Protocol: Afterwards, the microtiter plates were placed in an incubator (37° C., humidified incubator, 5% CO2) for 3 days. Then, the number of living cells was evaluated by flow cytometry (the cells were counted by FACsort for a fixed time length of 1 min, in which 100 microliter of each sample was tested). Of note, A 77636 hydrochloride is an orally-active D1R agonist, according to the manufacturer (Tocris).
Afterwards, the microtiter plates were placed in an incubator (37° C., humidified incubator, 5% CO2) for 3 days. Then, the number of living cells was evaluated by flow cytometry (the cells were counted by FACsort for a fixed time length of 1 min, in which 100 microliter of each sample was tested).
(§1) The experiment was designed to test the effect of exposing the cells to the D1R agonist for 1 min, 15 min, 1 hr or 72 hr. Thus, 1 min, or 15 min or 1 hr after the addition of the D1R agonist, the corresponding cells were transferred into tubes, centrifuged (1000 rpm for 10 min); and the supernatant was removed. […] Thus, its medium was not replaced, and these cells and remained as such in the incubator for 72 hr. At the end of the 72 hr incubation, the number of living cells was evaluated by flow cytometry (the cells were counted by FACsort for a fixed time length of 1 min, in which 100 microliter of each sample was tested).
(§2) Cell viability was tested afterwards.
(§3) For this purpose, the Jurkat T-cell leukemia line, the HuT-78 human T-lymphoma (cutaneous “Sezary” T-lymphoma) line, and the K-562 human Chronic-Myeloid Leukemia (CML) and Daudi Human B-lymphoma (Burkitt's lymphoma) lines were seeded in tissue culture wells (0.5 million cells/0.5 ml/well).
(§4) Cell survival/death was evaluated 3 days later by counting the number of living cells, using flow cytometry.

[2] = system: Human chronic myelogenous leukemia cells (CML) (K-562); experiment: as above; format: cell-based; settings: added four times during 1 hour, counted 3 days later
Protocol: (§5) Human chronic myelogenous leukemia cells (CML) (K-562) were seeded in 96 well plates (0.5 ml per well of 0.5 million cells/ml) and A 77636 hydrochloride was added and diluted 1:00 into the wells at starting concentrations of 10^−1M-10^−4M, so that the final concentration range tested was 10^−3M-10^−6M. Afterwards, the microtiter plates were placed in an incubator (37° C., humidified incubator, 5% CO2) for 3 days. Then, the number of living cells was evaluated by flow cytometry (the cells were counted by FACsort for a fixed time length of 1 min, in which 100 microliter of each sample was tested).
as §5, with “68930” for “77636”
as §5, with “SKF 38393 hydrobromide” for “A 77636 hydrochloride”
as §1, with “Human chronic myelogenous leukemia cells (CML) (K-562) were seeded in 96 well plates (0.5 ml per well of 0.5 million cells/ml) and A 77636 hydrochloride was added and diluted 1:00 into the wells, at a fixed starting concentration of 10^−2M, so that the final concentration tested was 10^−4M. The” for “The”, “min),” for “min);”
as §2, §3, §4
The effect of dopamine itself (that can of course activate all its D1R-5 receptors) was also tested. All of these molecules were tested at a similar concentration (10^−4 M). […] The specificity and restriction of the effect to the D1R is also seen in Tables 7 and 8.

[3] = system: Human Burkitt's B-Cell Lymphoma (Daudi); experiment: Cell death by LDH release (CytoTox 96); format: cell-based; settings: FDM 10^−4M-10^−12M, added four times during 1 hour
Protocol: as §2

[4] = system: Human T-cell leukemia (Jurkat); experiment: Cell death by LDH release (CytoTox 96); format: cell-based; settings: FDM 10^−4M-10^−12M, added four times during 1 hour
Protocol: as §2

[5] = system: TCR-activated normal human T-cells; experiment: Cell death by LDH release (CytoTox 96); format: cell-based; settings: FDM 10^−4M-10^−10M, added four times during 1 hour; methanesulfonate
Protocol: Non-tissue culture treated 24-well plates (Falcon, Franklin Lakes, N.J.) were coated overnight at 4° C. with anti-CD3 and anti-CD28 monoclonal antibodies (mabs) (BD Pharmingen, San Jose, Calif.); ([…] in PBS). The wells were then washed with PBS, blocked for 1 hour at 37° C. (PBS/1% BSA), and washed again. The freshly purified normal human T-cells were resuspended in their respective fresh media and seeded in the anti-CD3/CD28 coated wells (1×10^6 per well), and the plates were incubated for 72 hours (37° C., humidified incubator, 5% CO2). Then, the cells and their media were collected from each well, transferred into 50 ml tubes, centrifuged (1200 rpm, 10 minutes) and both the TCR-activated cells and their culture media were collected and transferred into clean separate tubes.
as §2

[6] = system: Human cutaneous Sezary T-lymphoma cells (HuT-78); experiment: Number of living cells counted by flow cytometry (FACSort) after D1R agonist; format: cell-based; settings: added four times during 1 hour, counted 3 days later
[7] = system: Human T-Cell Lymphoma (HuT-78); experiment: Cell death by LDH release (CytoTox 96); format: cell-based; settings: FDM 10^−4M-10^−12M, added four times during 1 hour
[8] = system: Human Chronic Myeloid Leukemia (CML, K-562); experiment: Cell death by LDH release (CytoTox 96); format: cell-based; settings: FDM 10^−4M-10^−12M, added four times during 1 hour
[9] = patients receiving the 48 hour FDA-approved infusion; cited from earlier work

In the case of `CS(=O)(=O)O.Oc1ccc(C2CNCCc3c2cc(O)c(O)c3Cl)cc1` (stereo not drawn) [FDM, 6-chloro-2,3,4,5-tetrahydro-1-(4-hydroxyphenyl)-[1H]-3-benzazepine-7,8-diol methanesulfonate], the “% Dead Cells” value ([1]; FDM 10^−4M) is reported as about 100%, the “No. of Living Cells” value ([1]; FDM 10^−4M) is reported as 4 and the “% Dead Cells” value ([1]; FDM 10^−6M) is reported as 18%. For the same compound, the “No. of Living Cells” value ([1]; FDM 10^−6M) was 15938, the “No. of Living Cells” value ([1]; FDM 10^−8M) was 7451 and the “% Dead Cells” value ([1]; FDM 10^−8M, methanesulfonate) was 62%. For the same compound, the “% Dead Cells” value ([1]; FDM 10^−10M) was 52%, the “No. of Living Cells” value ([1]; FDM 10^−10M) was 9472 and the “% Dead Cells” value ([1]; FDM 10^−12M) was 46%. The “No. of Living Cells” value ([1]; FDM 10^−12M) was 10568, the “% Dead Cells” value ([2]; FDM 10^−4M) was 100% and the “No. of Living Cells” value ([2]; FDM 10^−4M) was 21. For the same compound, the “% Dead Cells” value ([2]; FDM 10^−6M) was 34%, the “No. of Living Cells” value ([2]; FDM 10^−6M) was 18680 and the “No. of Living Cells” value ([2]; FDM 10^−8M) was 21137. The “% Dead Cells” value ([2]; FDM 10^−8M, methanesulfonate) was 25% and 26%, the “% Dead Cells” value ([2]; FDM 10^−10M) was 25% and the “No. of Living Cells” value ([2]; FDM 10^−10M) was 21476. For the same compound, the “% Dead Cells” value ([2]; FDM 10^−12M) was 33%, the “No. of Living Cells” value ([2]; FDM 10^−12M) was 19250 and the “Killing evident by LDH release (FIG. 5), in words” value [3] was “kills human Burkitt's B-lymphoma in a dose dependent manner”. The “Killing evident by LDH release (FIG. 2), in words” value [4] was “kills human T-cell leukemia in a dose dependent manner”, the “Killing evident by LDH release (FIG. 8), in words” value [5] was “marked death; also recorded: kills human TCR-activated T-cells, in a dose dependent manner” and the “% Dead Cells” value ([6]; FDM 10^−4M) was 99%. For the same compound, the “No. of Living Cells” value ([6]; FDM 10^−4M) was 213, the “% Dead Cells” value ([6]; FDM 10^−6M) was 28% and the “No. of Living Cells” value ([6]; FDM 10^−6M) was 17023. The “No. of Living Cells” value ([6]; FDM 10^−8M) was 16080, the “% Dead Cells” value ([6]; FDM 10^−8M, methanesulfonate) was 32% and the “% Dead Cells” value ([6]; FDM 10^−10M) was 38%. For the same compound, the “No. of Living Cells” value ([6]; FDM 10^−10M) was 14728, the “% Dead Cells” value ([6]; FDM 10^−12M) was 46% and the “No. of Living Cells” value ([6]; FDM 10^−12M) was 12662. For the same compound, the “Killing evident by LDH release (FIG. 3), in words” value [7] was “kills human cutaneous Sezary T-cell lymphoma in a dose dependent manner”, the “Killing evident by LDH release (FIG. 4), in words” value [8] was “kills human chronic myelogenous leukemia (CML) in a dose dependent manner” and the “Approximate steady state concentration in the circulation” value [9] was ~10^−8 M.
